{
  "source": "paper PMC6685790",
  "about": "(Nature structural & molecular biology, 2008)",
  "assay_in_all_cases": "Whole-cell recording of substituted GlyR in HEK cells",
  "assay_type_in_all_cases": "cell-based",
  "key": {"GlyR α1^L98A": {"molecular_target": "T1, GlyR α1^L98A (Homo sapiens, UniProt P23415, L126A)", "T1 sequence (P23415 29-457 L126A)": "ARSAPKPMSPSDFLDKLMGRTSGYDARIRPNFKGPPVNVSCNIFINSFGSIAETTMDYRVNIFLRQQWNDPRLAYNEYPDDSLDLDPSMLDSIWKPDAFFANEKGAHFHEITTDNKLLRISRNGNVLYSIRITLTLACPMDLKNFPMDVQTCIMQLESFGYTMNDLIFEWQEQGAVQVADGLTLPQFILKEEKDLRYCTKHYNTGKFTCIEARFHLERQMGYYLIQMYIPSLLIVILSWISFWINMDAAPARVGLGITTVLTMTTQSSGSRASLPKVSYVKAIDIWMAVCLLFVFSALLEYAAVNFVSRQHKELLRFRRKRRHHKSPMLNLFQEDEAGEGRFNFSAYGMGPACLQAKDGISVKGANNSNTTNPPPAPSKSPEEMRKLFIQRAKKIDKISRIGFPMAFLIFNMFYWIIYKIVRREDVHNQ", "details": "α1^L98A"}, "GlyR α1^F100A": {"molecular_target": "T2, GlyR α1^F100A (Homo sapiens, UniProt P23415, F128A)", "T2 sequence (P23415 29-457 F128A)": "T1 sequence (P23415 29-457 L126A) with A98L, F100A"}, "GlyR α1^I132A": {"molecular_target": "T3, GlyR α1^I132A (Homo sapiens, UniProt P23415, I160A)", "T3 sequence (P23415 29-457 I160A)": "T1 sequence (P23415 29-457 L126A) with A98L, I132A"}, "GlyR α1^L118A": {"molecular_target": "T4, GlyR α1^L118A (Homo sapiens, UniProt P23415, L146A)", "T4 sequence (P23415 29-457 L146A)": "T1 sequence (P23415 29-457 L126A) with A98L, L118A"}, "GlyR α1^L134A, E157A": {"molecular_target": "T5, GlyR α1^L134A, E157A (Homo sapiens, UniProt P23415, E185A/L162A)", "T5 sequence (P23415 29-457 L162A/E185A)": "T1 sequence (P23415 29-457 L126A) with A98L, L134A, E157A"}, "GlyR α1^F99A,E157A": {"molecular_target": "T6, GlyR α1^F99A,E157A (Homo sapiens, UniProt P23415, E185A/F127A)", "T6 sequence (P23415 29-457 F127A/E185A)": "T1 sequence (P23415 29-457 L126A) with A98L, F99A, E157A"}, "[1]": {"details": "read-out: Zn^2+ Activation EC50, direct activation without glycine"}, "[2]": {"details": "read-out: Zn^2+ Inhibition IC50, modulation of EC50 glycine currents"}, "[3]": {"details": "maximal Zn^2+ response as percentage of maximal glycine response in same cell"}},
  "note": "Positions count from the first letter of the chain named.",
  "data": [
    {"compound": "NCC(=O)O", "note": "[Glycine, glycine]", "values": [
      {"measurement": "Glycine Imax", "setting": "GlyR α1^L98A", "result": "6.4 ± 0.5", "unit": "nA"},
      {"measurement": "Glycine nH", "setting": "GlyR α1^L98A; Hill slope", "result": "1.9 ± 0.3"},
      {"measurement": "Glycine Imax", "setting": "GlyR α1^F100A", "result": "4.5 ± 0.7", "unit": "nA"},
      {"measurement": "Glycine nH", "setting": "GlyR α1^F100A; Hill slope", "result": "1.8 ± 0.2"},
      {"measurement": "Glycine Imax", "setting": "GlyR α1^I132A", "result": "6.1 ± 0.7", "unit": "nA"},
      {"measurement": "Glycine nH", "setting": "GlyR α1^I132A; Hill slope", "result": "2.7 ± 0.4"},
      {"measurement": "Glycine Imax", "setting": "GlyR α1^L118A", "result": "6.3 ± 0.7", "unit": "nA"},
      {"measurement": "Glycine nH", "setting": "GlyR α1^L118A; Hill slope", "result": "3.00 ± 0.2"},
      {"measurement": "Reduction in sensitivity to glycine", "setting": "GlyR α1^L134A, E157A; α1^L134A with extra mutation E157A vs α1^L134A", "result": 50, "unit": "fold"},
      {"measurement": "Threshold concentration for glycine", "setting": "GlyR α1^L134A, E157A; α1^L134A, E157A", "result": "> 100", "unit": "µM"},
      {"measurement": "Activation by glycine", "setting": "GlyR α1^F99A,E157A; α1^F99A,E157A, up to 10 mM glycine", "result": "insensitive"}
    ]},
    {"compound": "[Zn+2]", "note": "[Zn^2+]", "values": [
      {"measurement": "EC50", "setting": "GlyR α1^L98A; [1]", "result": "0.26 ± 0.08", "unit": "µM"},
      {"measurement": "IC50", "setting": "GlyR α1^L98A; [2]", "result": "> 1000", "unit": "µM"},
      {"measurement": "Zn^2+ Activation nH", "setting": "GlyR α1^L98A; Hill slope", "result": "1.1 ± 0.2"},
      {"measurement": "Zn^2+ Activation Relative efficacy (% Gly Imax)", "setting": "GlyR α1^L98A; [3]", "result": "49 ± 5", "unit": "% Gly Imax"},
      {"measurement": "Zn^2+ Activation nH", "setting": "GlyR α1^F100A; Hill slope", "result": "0.5 ± 0.1"},
      {"measurement": "Zn^2+ Activation Relative efficacy (% Gly Imax)", "setting": "GlyR α1^F100A; [3]", "result": "7 ± 4", "unit": "% Gly Imax"},
      {"measurement": "EC50", "setting": "GlyR α1^F100A; [1]", "result": "9.2 ± 0.6", "unit": "µM"},
      {"measurement": "IC50", "setting": "GlyR α1^F100A; [2]", "result": "> 1000", "unit": "µM"},
      {"measurement": "Zn^2+ Activation nH", "setting": "GlyR α1^I132A; Hill slope", "result": "1.2 ± 0.1"},
      {"measurement": "Zn^2+ Activation Relative efficacy (% Gly Imax)", "setting": "GlyR α1^I132A; [3]", "result": "72 ± 5", "unit": "% Gly Imax"},
      {"measurement": "EC50", "setting": "GlyR α1^I132A; [1]", "result": "140 ± 30", "unit": "µM"},
      {"measurement": "IC50", "setting": "GlyR α1^I132A; [2]", "result": "> 1000", "unit": "µM"},
      {"measurement": "Zn^2+ Activation EC50", "setting": "GlyR α1^L118A; direct activation without glycine", "result": "None"},
      {"measurement": "IC50", "setting": "GlyR α1^L118A; [2]", "result": "10.3 ± 0.36", "unit": "µM"},
      {"measurement": "Reduction in sensitivity to Zn^2+ activation", "setting": "GlyR α1^L134A, E157A; α1^L134A, E157A vs α1^L134A", "result": 3, "unit": "fold"},
      {"measurement": "Decrease in sensitivity to Zn^2+ activation", "setting": "GlyR α1^F99A,E157A; E157A on α1^F99A background vs α1^F99A", "result": 3, "unit": "fold"},
      {"measurement": "Zn^2+ sensitivity compared with α1^F99A", "setting": "GlyR α1^F99A,E157A; α1^F99A,E157A, Zn^2+ activation", "result": "identical"}
    ]}
  ]
}
